In ChEMBL document CHEMBL5360672, “Identification of Novel Dual-Target Estrogen Receptor α Degraders with Tubulin Inhibitory Activity for the Treatment of Endocrine-Resistant Breast Cancer” (J Med Chem, 2023):
The source made the active and inactive calls. No cut-off for these calls is given here.

Legend:
[1] = biological target: Estrogen receptor beta (Homo sapiens) (UniProt Q92731); experiment: Binding affinity to human ERbeta assessed as relative binding affinity incubated under vibration for 1 min followed by 2 hrs incubation under dark condition by fluorescence polarization assay relative to estradiol; settings: time 121.0 min
Chain of Estrogen receptor beta (Homo sapiens) (Q92731 whole entry): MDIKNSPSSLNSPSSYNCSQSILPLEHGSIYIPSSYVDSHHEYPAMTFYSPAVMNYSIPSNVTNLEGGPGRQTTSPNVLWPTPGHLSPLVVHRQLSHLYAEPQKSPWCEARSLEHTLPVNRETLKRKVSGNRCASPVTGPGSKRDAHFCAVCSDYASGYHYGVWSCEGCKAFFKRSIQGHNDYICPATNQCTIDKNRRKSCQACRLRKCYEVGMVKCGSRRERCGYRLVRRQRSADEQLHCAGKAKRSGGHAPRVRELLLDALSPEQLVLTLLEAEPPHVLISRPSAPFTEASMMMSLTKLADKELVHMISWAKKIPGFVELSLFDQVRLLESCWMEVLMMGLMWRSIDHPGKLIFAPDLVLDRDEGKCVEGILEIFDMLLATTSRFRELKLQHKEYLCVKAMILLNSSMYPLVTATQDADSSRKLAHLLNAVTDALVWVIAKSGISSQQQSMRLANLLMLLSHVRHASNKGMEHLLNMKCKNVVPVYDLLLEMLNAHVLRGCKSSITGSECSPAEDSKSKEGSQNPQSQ

Homo sapiens = species: Homo sapiens; experiment: Selectivity ratio of relative binding affinity for human ERalpha to relative binding affinity to human ERbeta
T47D [2] = experiment: Antiproliferative activity against ERalpha positive human T47D cells assessed as inhibition of cell proliferation incubated for 72 hrs by CCK8 assay; assay type: functional, cell-based
[3] = Cytotoxicity against human MCF-10A cells assessed as inhibition of cell proliferation incubated for 72 hrs by CCK8 assay; assay type: toxicity, cell-based
[4] = Antiproliferative activity against human Tamoxifen-resistant LCC2 cells assessed as inhibition of cell proliferation incubated for 72 hrs by CCK8 assay; assay type: functional, cell-based
T47D [5] = experiment: Antiproliferative activity against human T47D cells harboring ERalpha D538G mutant assessed as inhibition of cell proliferation incubated for 72 hrs by CCK8 assay; assay type: functional, cell-based
T47D [6] = experiment: Antiproliferative activity against human T47D cells harboring ERalpha Y537S mutant assessed as inhibition of cell proliferation incubated for 72 hrs by CCK8 assay; assay type: functional, cell-based
MDA-MB-231 = experiment: Antiproliferative activity against ERalpha negative human MDA-MB-231 cells assessed as inhibition of cell proliferation incubated for 72 hrs by CCK8 assay; assay type: functional, cell-based; settings: MDA-MB-231, 72 h
Estrogen receptor = biological target: T1, Estrogen receptor (Homo sapiens, UniProt P03372); experiment: Antagonist activity at ERalpha (unknown origin) expressed in HEK293T cells co-expressing ERbeta and ERE-luciferase reporter assessed as reduction in relative light unit incubated for 24 hrs by dual-luciferase reporter assay; assay type: cell-based
T1 sequence (P03372 whole entry): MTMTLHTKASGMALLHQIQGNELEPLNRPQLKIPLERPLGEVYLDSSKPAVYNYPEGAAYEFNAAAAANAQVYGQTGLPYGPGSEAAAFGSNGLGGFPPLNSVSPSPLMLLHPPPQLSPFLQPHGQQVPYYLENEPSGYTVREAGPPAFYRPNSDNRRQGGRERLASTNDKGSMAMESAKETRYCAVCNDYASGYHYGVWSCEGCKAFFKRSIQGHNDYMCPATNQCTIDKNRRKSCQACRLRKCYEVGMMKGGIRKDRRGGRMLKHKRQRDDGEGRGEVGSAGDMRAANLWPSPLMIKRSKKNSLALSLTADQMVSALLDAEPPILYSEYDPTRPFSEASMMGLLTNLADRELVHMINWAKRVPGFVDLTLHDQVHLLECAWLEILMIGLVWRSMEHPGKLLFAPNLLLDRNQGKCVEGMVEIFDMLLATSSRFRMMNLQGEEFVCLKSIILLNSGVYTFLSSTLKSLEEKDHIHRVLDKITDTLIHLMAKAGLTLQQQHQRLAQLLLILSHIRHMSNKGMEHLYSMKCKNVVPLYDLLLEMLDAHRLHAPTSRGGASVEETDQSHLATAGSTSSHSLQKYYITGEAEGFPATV

[7] = biological target: T2, Estrogen receptor (Homo sapiens) (UniProt P03372); experiment: Induction of ERalpha degradation in human MCF7 cells incubated for 6 to 24 hrs by Western blot analysis; assay type: cell-based; settings: dose 0.5-5 µM, time 6-24 hrs
T2 sequence (whole entry): T1 sequence (P03372 whole entry)

[8] = biological target: T2, Estrogen receptor (Homo sapiens); experiment: Induction of ERalpha degradation in human MCF7 cells at 1 uM incubated for 6 to 24 hrs by Western blot analysis; assay type: cell-based; settings: time 6-24 hrs
[9] = biological target: T2, Estrogen receptor (Homo sapiens); experiment: Induction of ERalpha degradation in human MCF7 cells at 5 uM incubated for 24 hrs in the presence of MG-132 by Western blot analysis; assay type: cell-based
[10] = system: Estrogen receptor (Homo sapiens), P03372 [D538G]; experiment: Induction of ERalpha degradation in human T47D cells harboring ERalpha D538G mutant at 0.5 to 5 uM incubated for 24 hrs by Western blot analysis; assay type: cell-based; settings: dose 0.5-5 µM
Chain of Estrogen receptor (Homo sapiens), P03372 [D538G] (P03372 whole entry D538G): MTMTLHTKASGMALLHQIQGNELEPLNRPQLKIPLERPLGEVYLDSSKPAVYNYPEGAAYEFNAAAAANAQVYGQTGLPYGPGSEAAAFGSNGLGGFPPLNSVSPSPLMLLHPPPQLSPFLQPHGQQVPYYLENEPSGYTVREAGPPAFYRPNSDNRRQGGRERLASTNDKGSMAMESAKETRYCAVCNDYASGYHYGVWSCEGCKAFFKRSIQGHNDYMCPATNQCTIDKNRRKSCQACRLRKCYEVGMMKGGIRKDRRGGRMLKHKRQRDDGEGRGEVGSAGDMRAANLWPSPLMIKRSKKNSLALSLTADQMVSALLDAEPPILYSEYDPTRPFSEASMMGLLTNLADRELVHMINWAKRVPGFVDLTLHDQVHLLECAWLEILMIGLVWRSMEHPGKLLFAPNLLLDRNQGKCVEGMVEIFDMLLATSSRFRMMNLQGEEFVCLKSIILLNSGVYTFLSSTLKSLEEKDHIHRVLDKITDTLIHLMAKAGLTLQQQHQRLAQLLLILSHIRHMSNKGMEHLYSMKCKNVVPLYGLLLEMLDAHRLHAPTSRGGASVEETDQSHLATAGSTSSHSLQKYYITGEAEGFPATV

[11] = system: Estrogen receptor (Homo sapiens), P03372 [Y537S]; experiment: Induction of ERalpha degradation in human T47D cells harboring ERalpha Y537S mutant at 0.5 to 5 uM incubated for 24 hrs by Western blot analysis; assay type: cell-based; settings: dose 0.5-5 µM
Chain of Estrogen receptor (Homo sapiens), P03372 [Y537S] (P03372 whole entry Y537S): as the sequence (P03372 whole entry D538G) above, with Y537S, G538D counted along it

[12] = biological target: T2, Estrogen receptor (Homo sapiens); experiment: Induction of ERalpha degradation in human Tamoxifen-resistant LCC2 cells at 0.5 to 5 uM incubated for 6 to 24 hrs by Western blot analysis; assay type: cell-based; settings: Tamoxifen-resistant LCC2 cell, dose 0.5-5 µM, time 6-24 hrs
Tubulin (Homo sapiens) [13] = biological target: T3, Tubulin (Homo sapiens) (UniProt P68371+Q9H4B7+P0DPH7+P68366+Q13509+Q71U36+P04350+Q3ZCM7+P07437+P68363+Q9BQE3+Q6PEY2+Q13885+Q9BVA1+Q9BUF5); experiment: Disruption of microtubule network in human MCF7 cells assessed as ruptured microtubule network at 2 uM incubated for 48 hrs by DAPI staining based confocal laser scanning microscopic analysis; assay type: cell-based
Tubulin (Homo sapiens) [14] = biological target: T3, Tubulin (Homo sapiens); experiment: Disruption of microtubule network in human MCF7 cells assessed as chaotic microtubule network at 2 uM incubated for 48 hrs by DAPI staining based confocal laser scanning microscopic analysis; assay type: cell-based
Tubulin (Homo sapiens) [15] = biological target: T3, Tubulin (Homo sapiens); experiment: Disruption of microtubule network in human LCC2 cells assessed as chaotic microtubule network at 4 uM incubated for 48 hrs by DAPI staining based confocal laser scanning microscopic analysis; assay type: cell-based
MCF7 [16] = experiment: Induction of cell cycle arrest in human MCF7 cells assessed as increase in G2/M phase cells at 0 to 8 uM incubated for 48 hrs by flow cytometry analysis (reference value: 20.10%); assay type: functional; settings: dose 0-8 µM
MCF7 [17] = experiment: Antitumor activity against human MCF7 cells xenografted in Balb/c nude mouse assessed as reduction in Ki67 positive cells at 2 to 4 mg/kg, ip administered every other day for 20 days by immunohistochemistry analysis; assay type: functional, organism-based; settings: dose 2-4 mg/kg, time 20.0 day
Mus musculus [18] = experiment: In vivo induction of ERalpha degradation in BALB/c nude mouse xenografted with human MCF7 cells assessed as decrease in ERalpha expression in tumor at 2 to 4 mg/kg, ip administered every other day for 20 days by Western blot analysis; assay type: functional, organism-based; settings: dose 2-4 mg/kg, time 20.0 day
[19] = Toxicity in Balb/c nude mouse xenografted with human MCF7 cells assessed as effect on heart morphology at 2 to 4 mg/kg, ip administered every other day for 20 days by H&E staining based analysis; assay type: organism-based; settings: in vivo, 480 h, dose 2-4 mg/kg, time 20 day
[20] = Toxicity in Balb/c nude mouse xenografted with human MCF7 cells assessed as effect on liver morphology at 2 to 4 mg/kg, ip administered every other day for 20 days by H&E staining based analysis; assay type: organism-based; settings: in vivo, 480 h, dose 2-4 mg/kg, time 20 day
[21] = Toxicity in Balb/c nude mouse xenografted with human MCF7 cells assessed as effect on kidney morphology at 2 to 4 mg/kg, ip administered every other day for 20 days by H&E staining based analysis; assay type: organism-based; settings: in vivo, 480 h, dose 2-4 mg/kg, time 20 day
MCF7 [22] = experiment: Antitumor activity against human MCF7 cells xenografted in Balb/c nude mouse assessed as tumor growth inhibition at 2 mg/kg, ip administered every other day for 20 days relative to control; assay type: functional; settings: MCF7, 480 h, time 20 day, read-out: TGI
Mus musculus [23] = experiment: In vivo induction of ERalpha degradation in BALB/c nude mouse xenografted with human tamoxifen-resistant LCC2 cells assessed as decrease in ERalpha expression in tumor at 2 mg/kg, ip administered every other day for 20 days by Western blot analysis; assay type: functional, organism-based; settings: time 20.0 day

RBA [1]: 0.1%
Selectivity ratio (Homo sapiens): 85.7
IC50 (T47D [2]): 2560 nM
IC50 (T47D [5]): 1670 nM
IC50 (T47D [6]): 1370 nM
IC50 (MDA-MB-231): 3.75 µM
IC50 (Estrogen receptor): 56 nM
Activity [7]: Dose-Dependent Effect
Activity [8]: Active
Activity [9]: inactive
Activity [10]: Active
Activity [11]: Active
Activity [12]: Active
Activity (Tubulin (Homo sapiens) [13]): Active
Activity (Tubulin (Homo sapiens) [14]): Active
Activity (Tubulin (Homo sapiens) [15]): Active
Compound: N#C[Se]CCCCCC(=O)Nc1ccc(C2=C(c3ccc(O)cc3)C3CC(S(=O)(=O)N(CC(F)(F)F)c4ccccc4F)C2O3)cc1 (stereo unspecified)
IC50 at 72 h [3]: 15.8 µM
IC50 [4]: 1590 nM
Activity (MCF7 [16]): 40.88%
Activity (MCF7 [17]): Active
Activity (Mus musculus [18]): Active
Activity [19]: Non-Toxic
Activity [20]: Non-Toxic
Activity [21]: Non-Toxic
inhibition in vivo at 2 mg/kg (MCF7 [22]): 74.6%
Activity (Mus musculus [23]): Active
